The record followed here is ChEMBL document CHEMBL4342494 (ACS Med Chem Lett, 2020).

In experiment [1] the target is T1, D(1A) dopamine receptor (Homo sapiens, UniProt P21728). Put plainly: Agonist activity at D1R (unknown origin) transfected in human HEK293T cells assessed as increase in cAMP accumulation incubated for 2 hrs by cAMP Glo-sensor assay. Type of experiment: functional, cell-based.
For experiment [2], the target named is T1, D(1A) dopamine receptor. Put plainly: Agonist activity at C-terminal RLuc8-fused D1R (unknown origin) transfected in human HEK293T cells co-expressing N-terminal Venus-tagged beta-arrestin2 assessed as increase in beta-arrestin2 recruitment measured after 5 mins in presence of coelenterazine H by BRET assay. Type of experiment: cell-based. (Activated receptors often draw arrestin, which recruitment assays turn into a signal.)

Experiment [3] deals with T2, D(2) dopamine receptor (Homo sapiens, UniProt P14416).
T2 sequence (P14416 whole entry): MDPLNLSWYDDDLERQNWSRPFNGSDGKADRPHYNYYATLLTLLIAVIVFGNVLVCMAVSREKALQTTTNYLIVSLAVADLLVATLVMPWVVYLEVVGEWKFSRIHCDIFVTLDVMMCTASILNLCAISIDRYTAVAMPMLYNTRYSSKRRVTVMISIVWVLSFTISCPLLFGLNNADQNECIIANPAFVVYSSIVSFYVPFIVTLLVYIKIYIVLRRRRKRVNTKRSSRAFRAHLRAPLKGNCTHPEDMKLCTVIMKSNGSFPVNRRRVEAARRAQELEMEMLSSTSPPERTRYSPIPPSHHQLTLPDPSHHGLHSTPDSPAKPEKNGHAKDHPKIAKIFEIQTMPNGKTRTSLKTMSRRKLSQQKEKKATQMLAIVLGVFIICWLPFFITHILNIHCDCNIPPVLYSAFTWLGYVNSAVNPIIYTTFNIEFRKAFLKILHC
For experiment [4], the target named is T2, D(2) dopamine receptor. Put plainly: Agonist activity at D2 long receptor (unknown origin) transfected in human HEK293T cells assessed as increase in cAMP accumulation incubated for 2 hrs by cAMP Glo-sensor assay. Type of experiment: functional, cell-based. (cAMP levels reflect the balance of adenylyl cyclase and phosphodiesterase activity.)
Experiment [5] has as its target T1, D(1A) dopamine receptor.
Experiment [6] has as its target T2, D(2) dopamine receptor. This is another data set of the same source.

T1 sequence (P21728 whole entry, the tested form may be a part): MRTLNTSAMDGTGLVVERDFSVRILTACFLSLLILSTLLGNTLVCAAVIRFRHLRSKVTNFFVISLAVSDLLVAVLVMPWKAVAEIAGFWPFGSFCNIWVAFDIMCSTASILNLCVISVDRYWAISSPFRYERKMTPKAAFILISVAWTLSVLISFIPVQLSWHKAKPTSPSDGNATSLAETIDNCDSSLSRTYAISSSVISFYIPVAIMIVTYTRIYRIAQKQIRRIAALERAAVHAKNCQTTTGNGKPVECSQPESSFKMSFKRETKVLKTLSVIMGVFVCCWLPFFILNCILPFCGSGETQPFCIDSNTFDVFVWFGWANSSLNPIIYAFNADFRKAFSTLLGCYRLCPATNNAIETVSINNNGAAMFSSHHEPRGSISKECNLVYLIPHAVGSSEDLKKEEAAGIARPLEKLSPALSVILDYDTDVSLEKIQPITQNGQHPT

Take `CCc1cc2c(c(OC(C)=O)c1OC(C)=O)-c1cccc3c1[C@@H](C2)N(C)CC3`: the EC50 at D(1A) dopamine receptor [1] (read-out: EC50) is 1550 nM; on D(1A) dopamine receptor [2] (read-out: EC50), 0.38 nM.
The like results for `COCOc1ccc2c(c1OCOC)-c1cccc3c1[C@@H](C2)N(C)CC3` were, in that order, over 10000 nM and 8.45 nM.
Regarding `CC(=O)Oc1c(C(C)C)cc2c(c1OC(C)=O)-c1cccc3c1[C@@H](C2)N(C)CC3`, the EC50 on D(1A) dopamine receptor [1] (read-out: EC50) is 951 nM; at D(1A) dopamine receptor [2] (read-out: EC50) it was over 10000 nM; on D(1A) dopamine receptor [2] (read-out: pEC50 (converted)), over 10000 nM; at D(2) dopamine receptor [3] it was over 10000 nM; on D(2) dopamine receptor [4] (read-out: EC50) it was over 10000 nM; at D(2) dopamine receptor [4] (read-out: pEC50 (converted)), over 10000 nM.
As for `COc1cccc(-c2cc3c(c(OC(C)=O)c2OC(C)=O)-c2cccc4c2[C@@H](C3)N(C)CC4)c1`, the EC50 at D(1A) dopamine receptor [1] (read-out: EC50) is 669 nM; on D(1A) dopamine receptor [1] (read-out: pEC50 (converted)), 661 nM; on D(1A) dopamine receptor [2] (read-out: EC50) it was 41.4 nM; at D(2) dopamine receptor [4] (read-out: EC50) it was over 10000 nM; at D(2) dopamine receptor [4] (read-out: pEC50 (converted)), over 10000 nM.
Take `CC(=O)Oc1c(Br)cc2c(c1OC(C)=O)-c1cccc3c1[C@@H](C2)N(C)CC3`: the EC50 on D(2) dopamine receptor [3] was 1410 nM; at D(2) dopamine receptor [4] (read-out: EC50), over 10000 nM; at D(2) dopamine receptor [4] (read-out: pEC50 (converted)), over 10000 nM.
With `CN1CCc2cccc3c2[C@H]1Cc1ccc(O)c(O)c1-3`, at D(1A) dopamine receptor [5], the G-protein bias factor was 41.5. Also, at D(2) dopamine receptor [6], the log(Tau/KA) amounted to 2.16.
Turning to `CC(=O)Oc1c(Cl)cc2c(c1OC(C)=O)-c1cccc3c1[C@@H](C2)N(C)CC3`, the EC50 on D(2) dopamine receptor [3] was 604 nM; at D(2) dopamine receptor [4] (read-out: EC50) it was over 10000 nM; on D(2) dopamine receptor [4] (read-out: pEC50 (converted)), over 10000 nM.
Consider `CN1CCc2cccc3c2[C@H]1Cc1ccc2c(c1-3)OCO2`, for which the EC50 was 112 nM at D(1A) dopamine receptor [1] (read-out: EC50); over 10000 nM on D(1A) dopamine receptor [2] (read-out: EC50); over 10000 nM at D(1A) dopamine receptor [2] (read-out: pEC50 (converted)); 102 nM at D(2) dopamine receptor [3]; over 10000 nM on D(2) dopamine receptor [4] (read-out: EC50); over 10000 nM on D(2) dopamine receptor [4] (read-out: pEC50 (converted)).
At D(1A) dopamine receptor [5], `CCCN1CCc2cccc3c2[C@H]1Cc1ccc(O)c(O)c1-3` yielded a G-protein bias factor of 19.3. Also, on D(2) dopamine receptor [6], the log(Tau/KA) was 0.85.
